From ChEMBL document CHEMBL1201862, “PubChem BioAssay data set” (2004)
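Results reflect a 48-hour exposure of cells in 96-well plates to compound at five concentrations. Here, GI50 denotes the concentration required for 50% inhibition of growth.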 Calls of active or inactive are those of the source. Rule as the data show it: active = GI50 up to about 1.1 µM and inactive = higher.

Legend:
Experiment in all cases: DTP human tumour cell line panel, 48 h
OVCAR-5 = test system: OVCAR-5
U-251 = test system: U-251
SNB-75 = test system: SNB-75
UO-31 = test system: UO-31
NCI-H226 = test system: NCI-H226
CAKI-1 = test system: CAKI-1
SF-268 = test system: SF-268
SF-539 = test system: SF-539
OVCAR-8 = test system: OVCAR-8
SK-MEL-2 = test system: SK-MEL-2
KM12 = test system: KM12
RPMI-8226 = test system: RPMI-8226
TK-10 = test system: TK-10
SK-MEL-5 = test system: SK-MEL-5
SW-620 = test system: SW-620
HL-60 = test system: HL-60
ACHN = test system: ACHN
Malme-3M = test system: Malme-3M
NCI-H23 = test system: NCI-H23
OVCAR-3 = test system: OVCAR-3

SMILES	GI50 (OVCAR-5)	GI50 (U-251)	GI50 (SNB-75)	GI50 (UO-31)	GI50 (NCI-H226)	GI50 (CAKI-1)	GI50 (SF-268)	GI50 (SF-539)	GI50 (OVCAR-8)	GI50 (SK-MEL-2)	GI50 (KM12)	GI50 (RPMI-8226)	GI50 (TK-10)	GI50 (SK-MEL-5)	GI50 (SW-620)	GI50 (HL-60)	GI50 (ACHN)	GI50 (Malme-3M)	GI50 (NCI-H23)	GI50 (OVCAR-3)
COc1ccc([I+]c2ccc(OC)cc2)cc1	> 100 µM (inactive)	34 µM (inactive)	28.9 µM (inactive)	> 100 µM (inactive)	32.7 µM (inactive)	> 100 µM (inactive)	> 84.5 µM (inactive)	> 78.3 µM (inactive)	22.1 µM (inactive)	> 100 µM (inactive)	28.9 µM (inactive)	44.1 µM (inactive)	> 100 µM (inactive)	5.75 µM (inactive)	> 91.8 µM (inactive)	27 µM (inactive)	> 100 µM (inactive)	20.2 µM (inactive)	13 µM (inactive)	26.7 µM (inactive)
CC(NNC(=O)c1cc[n+]([BH2-]C#N)cc1)c1ccc(F)cc1 (stereo not given)	> 100 µM (inactive)	> 100 µM (inactive)	> 100 µM (inactive)	> 100 µM (inactive)	> 100 µM (inactive)	> 100 µM (inactive)	> 100 µM (inactive)	> 100 µM (inactive)	> 100 µM (inactive)	> 100 µM (inactive)	> 100 µM (inactive)	> 100 µM (inactive)	> 100 µM (inactive)	> 100 µM (inactive)	> 100 µM (inactive)	> 100 µM (inactive)	> 100 µM (inactive)	> 100 µM (inactive)	> 100 µM (inactive)	> 100 µM (inactive)
Clc1ncc(C(Cl)(Cl)Cl)nc1-c1ccccc1	16.1 µM (inactive)	1.84 µM (inactive)	2.56 µM (inactive)	1.84 µM (inactive)	18.4 µM (inactive)	2.2 µM (inactive)	2.19 µM (inactive)	2.63 µM (inactive)	2.57 µM (inactive)	2.27 µM (inactive)	1.82 µM (inactive)	0.598 µM (active)	2.3 µM (inactive)	12.2 µM (inactive)	4.21 µM (inactive)	2.7 µM (inactive)	1.68 µM (inactive)	5.14 µM (inactive)	2.24 µM (inactive)	1.72 µM (inactive)
N#CSCC1COc2ccccc2O1 (stereo not given)	> 10 µM (inactive)	> 10 µM (inactive)	> 10 µM (inactive)	> 10 µM (inactive)	6.11 µM (inactive)	> 10 µM (inactive)	> 10 µM (inactive)	> 10 µM (inactive)	> 10 µM (inactive)	> 10 µM (inactive)	> 10 µM (inactive)	4.98 µM (inactive)	> 10 µM (inactive)	6.87 µM (inactive)	4.97 µM (inactive)	2.55 µM (inactive)	> 10 µM (inactive)	> 10 µM (inactive)	> 10 µM (inactive)	> 10 µM (inactive)
